According to patent publication US20190029975A1, “TOCOPHEROL AND TOCOTRIENOL QUINONE DERIVATIVES FOR INCREASING THIOSULFATE LEVELS OR DECREASING HYDROGEN SULFIDE LEVELS” (BIOELECTRON TECHNOLOGY CORPORATION, priority 2016, published 2019):

Tests used:
[1] = tested on: mouse striatal cells (Q7); assay: Thiosulfate production in EPI-743 treated ATG-stressed Q7 cells; assay type: cell-based; details: for effect on cysteine levels: Q7 cells, 10 μM ATG or 100 nM EPI-743; for Cysteine Calculated Concentration / Thiosulfate Peak Area: 100 nM 743
Procedure: Conditionally immortalized wild-type mouse striatal cells (Q7, passage #45) were seeded at 300,000 cells per well in 6-well plates containing 3 mL/well of DMEM (High Glucose) containing 10% FBS, penicillin/streptomycin, and 400 μg/mL G418. After an overnight incubation at 33C, the cells were treated for 4-5 hours with either EPI-743 (100 nM final concentration) or DMSO vehicle (1% final concentration). Aurothioglucose (final concentration 10 μM) was added prior to an 18-hour treatment period. Cells were washed 1× with Hanks' buffered saline solution (HBSS), counted, and then resuspended in monobromobimane capping solution.
Cysteine and thiosulfate levels are shown below. Aurothioglucose (ATG) is an inhibitor of thioredoxin reductase-1 and has been repeatedly used as a tool compound to increase oxidative stress. […] Cysteine levels were unaffected by ATG or EPI-743 treatment.

[2] = tested on: SQOR products (thiosulfate, glutathione persulfide); assay: Correlation of plasma H2S with the SQOR products thiosulfate and glutathione persulfide in Leigh Syndrome patients; assay type: in vivo, human; details: all subjects at all time points
Procedure: A quantitative method for the analysis of H2S, thiosulfate, and glutathione persulfide in biological matrices via liquid chromatography coupled to atmospheric pressure ionization (API) tandem mass spectrometry (LC-MS/MS) is provided.
Patient plasma samples were collected with informed consent from the patients described in Example 1. The sulfur containing compounds were derivatized with bromo bimane to stabilize the samples for measurement. Samples were stored at −80° C. and shipped for analysis to Edison under dry ice.
(§1) The samples were analyzed by measuring the absolute concentration of H2S, thiosulfate, and glutathione persulfide using 6-point calibration curves. […]
(§2) An API mass spectrometer (AB6500 Qtrap) coupled to a high performance liquid chromatograph (Eksigent MicroLC 200 Plus) was used to quantify H2S, thiosulfate, and glutathione persulfide and their internal standards from all biological fluids and calibrants. […]
Bromobimane (BB) and Bromobimane internal standard (B-IS) were injected before each calibration curve. […] Statistical calculations and analytical run acceptance were determined based on criteria set forth in the FDA/EMA guidance where applicable. Fundamental parameters such as accuracy, precision, selectivity, sensitivity, reproducibility, and stability were monitored. […]

[3] = Plasma thiosulfate in Leigh Syndrome patients treated with EPI-743 (EPI743-12-002 Leigh Trial); assay type: in vivo, human
Procedure: As part of the Edison EPI743-12-002 Leigh Trial, 17 Leigh Syndrome patients were treated with EPI-743 (15 mg/kg up to 200 mg three times a day) for 12 months. An additional 14 Leigh Syndrome patients received placebo for the first six months, and were randomized to either 5 or 15 mg/kg up to 200 mg three times a day EPI-743 for the subsequent six months.
Plasma thiosulfate concentrations were measured at various time points, over a 12 month period, for patients on drug and placebo. Plasma samples were collected from Leigh Syndrome patients, and the samples processed according to the procedure described in Example 2. […]
as §1, §2
Bromobimane (BB) and Bromobimane internal standard (B-IS) were injected before each calibration curve. […] Statistical calculations and analytical run acceptance were determined based on criteria set forth in the FDA/EMA guidance where applicable. Fundamental parameters such as accuracy, precision, selectivity, sensitivity, reproducibility, and stability were monitored.

| Structure (SMILES) | effect on cysteine levels [1] | Cysteine Calculated Concentration ([1]; 10 μM ATG, 1% DMSO control 0.272) [µM] | Thiosulfate Peak Area ([1]; 10 μM ATG, 1% DMSO control 3466) | increase in thiosulfate, EPI-743 treated versus untreated cells ([1]; ATG-stressed cells (10 μM ATG), 100 nM EPI-743) | Cysteine Calculated Concentration ([1]; No Stress, 1% DMSO control 0.251) [µM] | Thiosulfate Peak Area ([1]; No Stress, 1% DMSO control 2881) | H2S/glutathione persulfide ratio versus untreated patients [2] | H2S/thiosulfate ratio versus untreated patients [2] | increase in mean plasma thiosulfate ([3]; Leigh Syndrome patients, across all time points over 12 months, versus baseline, placebo virtually no change) | mean plasma thiosulfate ([3]; subjects treated with EPI-743, across all time points, baseline 0.21 μM) [µM] |
| --- | --- | --- | --- | --- | --- | --- | --- | --- | --- | --- |
| OC[C@H]1O[C@H]([S-])[C@H](O)[C@@H](O)[C@@H]1O.[Au+] [ATG, Aurothioglucose, reference compound] | unaffected | – | – | – | – | – | – | – | – | – |
| CC(C)=CCC/C(C)=C/CC/C(C)=C/CC[C@@](C)(O)CCC1=C(C)C(=O)C(C)=C(C)C1=O [EPI-743] | unaffected | 0.281 | 37903 | approximately 10 fold | 0.264 | 3656 | lower | lower | greater than 100% | 0.54 |
